The values below come from patent US20040167111A1, “Pharmaceutical preparations for treating side effects during and/or after GnRHa therapy” (priority 1998, published 2004).

The subject of data set [1] is test subjects with fibroid tumors of the uterus. Briefly: Clinical study in women with fibroid tumors of the uterus under GnRHa therapy. Format: in vivo, human. On the procedure: (§1) The effectiveness of injected Decapeptyl-Depot (Ferring Arzneimittel GmbH, Kiel, Germany) in a dose of 3.2 mg of Triptorelin intramuscularly at intervals of four weeks and 1 to 2 mg of 14α,15α-methylene-1,3,5(10),8-tetraene-3,17α-diol daily, given in the form of a vaginal suppository of 1 mg of 14α,15α-methylene-1,3,5(10),8-tetraene-3,17α-diol each, was tested in fourteen female test subjects aged 22 to 38, who were being treated with Decapeptyl-Depot for endometriosis for at least six months.
Test subjects aged 22 to 46 with fibroid tumors of the uterus were given the same doses.

The test system of the next data set is prostate of male rats. Briefly: Model study in male rats: moisture content of the prostate after 21 days. Format: in vivo. On the procedure:
(§2) A model study was performed in which both 17β-estradiol and 14α,15α-methylene-1,3,5(10),8-tetraene-3,17α-diol were administered to male rats. The purpose of this study was to compare the extent of the undersirable side effects produced in males (in this case male rats as a model) that are produced by administration of an estrogen, namely 17β-estradiol, and by 14α, 15α-methylene-1,3,5(10),8-tetraene-3,17α-diol, an effective ingredient of the present invention.
(§3) Respective amounts of 17β-estradiol and 14α,15α-methylene-1,3,5(10),8-tetraene-3,17α-diol equivalent to 0.04 mg/kg body weight were administered over a 21 day period to the male rats in corresponding groups of male rats. These amounts were administered daily over the 21 day period to individual male rats subcutaneously. Eight male rats were in each group.
(§4) The moisture content in the prostate and seminal vesicles of each tested male rat was measured at the end of the 21 day test period. The experimental error estimate is shown with the “T” at the top of each bar in the respective bar graphs.

Data set [2] has as its system female test subjects treated with Decapeptyl-Depot for endometriosis. Briefly: Clinical study in women with endometriosis under GnRHa therapy (Decapeptyl-Depot). Format: in vivo, human. On the procedure: Here clinical studies in women with endometriosis are reported.
as §1
The treatment with 14α,15α-methylene-1,3,5(10),8-tetraene-3,17α-diol was begun four weeks after the beginning of GnRHa therapy, that is, at the time of the second Decapeptyl injection.
Hot flashes were recorded by the subjects daily on a control form laid out for a 24-hour day, beginning with the first day of Decapeptyl therapy.
The mean number of hot flashes per 24 hours in weeks 3 and 4 of the GnRHa treatment (that is, before the beginning of the 14α,15α-methylene-1,3,5(10),8-tetraene-3,17α-diol therapy) was assumed to be 100%, for the sake of better comparability. The number of hot flashes during additional therapy with 14α,15α-methylene-1,3,5(10),8-tetraene-3,17α-diol was indicated as a percentage of the starting value. For five subjects, a measurement of skin temperature over 24 hours was done, for the sake of objectivity.
At intervals of four weeks, immediately prior to the injection of Decapeptyl-Depot, blood was drawn to determine LI-I, FSH, prolactin, testosterone, DHEAS, SHBG, free testosterone, estradiol, and progesterone. Blood specimens were also taken for determining a simple blood count, SGOT, SGPT, creatinine, Na, K, Ca, albumin, glucose and CA 125.
For long-term treatment, bone density was monitored at intervals of 6 to 12 months. In seven subjects, trials of withdrawal from 14α,15α-methylene-1,3,5(10),8-tetraene-3,17α-diol over 4 to 8 weeks each were done.

Data set [3] has as its system males with prostate-Ca under GnRHa therapy. Briefly: Observation in males with prostate-Ca under GnRHa therapy. It is filed as in vivo, human.
Data set [4] concerns seminal vesicles of male rats. Description: Model study in male rats: moisture content of the seminal vesicles after 21 days. It is filed as in vivo. On the procedure: as §2, §3, §4
The test system of data set [5] is female test subjects treated with Decapeptyl-Depot for endometriosis. Briefly: Clinical study in women with endometriosis under GnRHa therapy (Decapeptyl-Depot). It is filed as in vivo, human. The source holds these as a separate data set.

With `C[C@]12CCC3=C(CCc4cc(O)ccc43)[C@@]13C[C@H]3C[C@H]2O` [14α,15α-methylene-1,3,5(10),8-tetraene-3,17α-diol], the “course of the decrease in uterine volume versus subjects not receiving the compound” value in data set [1] (Decapeptyl-Depot plus add-on) is “identical”. In addition, the “influence on the effect of the GnRHa therapy on the lower organs” value in data set [1] (supplementary treatment) is “did not influence”. The uterus size in data set [1] (within three months, Decapeptyl-Depot plus add-on) is 40±10 % of the starting value. The “proliferation effect in the prostates (increase in the moisture content)” value in the data set on prostate of male rats (male rats, 0.04 mg/kg body weight subcutaneously daily over 21 days, FIG. 1) was “scarcely any proliferation effect”. Further, the “undesirable estrogen side effects” value in the data set with prostate of male rats (male rats, prostate and seminal vesicles, 0.04 mg/kg s.c. daily 21 days) is “no undesirable estrogen side effects”. Further, the bleeding result in data set [2] (1 to 2 mg daily as vaginal suppository in addition to Decapeptyl-Depot) is recorded as “No bleeding occurred”. The “values for LH, FSH, prolactin, testosterone, DHEAS, SHBG, estradiol, and progesterone” value in data set [2] (1 to 2 mg daily vaginal suppository in addition to Decapeptyl-Depot) is “remained low and unchanged”. In data set [2] (add-on to Decapeptyl-Depot), the “Ca 125 values” is “did not rise”; the body weight entry is on record as “no change”; the intracyclic bleeding result was “No intracyclic bleeding occurred”; the “liver values, blood count or electrolytes” value is recorded as “No changes”. Also, the endometriosis-specific complaints entry in data set [2] (during the treatment) is on record as “did not recur”. The bone density entry in data set [2] (over one year, four subjects monitored) is “did not change significantly”. In data set [2] (subjects with borderline RR (n=4, RR around 140/80)), the blood pressure entry is “around 110/70”. In addition, the “hot flashes in withdrawal trial” value in data set [2] (withdrawal over 4 to 8 weeks, seven subjects) is recorded as “increase in hot flashes, within three weeks back to the starting values”. In addition, in data set [3], the “hot flashes tripped by GnRHa therapy” value was “same result”. For the same compound, the “proliferation effect on the seminal vesicles (increase in the moisture content)” value in data set [4] (male rats, 0.04 mg/kg body weight subcutaneously daily over 21 days, FIG. 2) is “no profileration effect”. Moreover, the “complaints of undesirable estrogen-related side effects” value in data set [5] (all subjects) was “complaint-free”. The “hot flashes tripped by GnRHa therapy” value in data set [5] (treated females, endometriosis or fibroid tumors of the uterus) is on record as “effectively eliminated”.

Take `C[C@]12CC[C@@H]3c4ccc(O)cc4CC[C@H]3[C@@H]1CC[C@@H]2O` [estradiol, 17β-estradiol, reference compound]: in the data set on prostate of male rats (rat, in vivo, sc, 0.04 mg/kg), the “proliferation effect in the prostates (increase in the moisture content)” value is reported as “comparatively large proliferation effect” and the “undesirable estrogen side effects” value was “estrogen side effects of course result”. Moreover, the “proliferation effect on the seminal vesicles (increase in the moisture content)” value in data set [4] (rat, in vivo, sc, 0.04 mg/kg) was “comparatively large proliferation effect”.
